Experimental data from ChEMBL document CHEMBL2401615, “Peptide backbone replacement of hepatitis C virus NS3 serine protease C-terminal cleavage product analogs: discovery of potent succinamide inhibitors” (Bioorg Med Chem Lett, 2013).
Converted amounts (≈) assume the structure as drawn.

System: not listed separately
Test: Solubility of the compound at pH 7.2
Format: physicochemical
Settings: buffer

| solubility [mg/mL] | SMILES |
| --- | --- |
| 83 (≈ 99.4 mM) | C=C[C@@H]1C[C@]1(NC(=O)[C@@H]1C[C@@H](Oc2cc(OCC)nc3c(Br)c(OC)ccc23)CN1C(=O)[C@@H](CC(=O)NC(C)(C)C)C(C)(C)C)C(=O)NS(=O)(=O)C1CC1 |

System: not listed separately
Test: Bioavailability in rat at 2 mg/kg, […]
Format: ADME, organism-based
Settings: in vivo

| bioavailability [%] | SMILES |
| --- | --- |
| 47 | C=C[C@@H]1C[C@]1(NC(=O)[C@@H]1C[C@@H](Oc2cc(-c3csc(NC(C)C)n3)nc3c(Br)c(OC)ccc23)CN1C(=O)[C@@H](CC(=O)NC1CCCC1)C(C)(C)C)C(=O)O |

System: not listed separately
Test: Volume of distribution at steady state in rat at 2 mg/kg, iv
Format: ADME, organism-based
Parameters: dose 2 mg/kg, route intravenous
Settings: in vivo, read-out: Vdss

| Vd [L/kg] | SMILES |
| --- | --- |
| 1.3 | C=C[C@@H]1C[C@]1(NC(=O)[C@@H]1C[C@@H](Oc2cc(-c3csc(NC(C)C)n3)nc3c(Br)c(OC)ccc23)CN1C(=O)[C@@H](CC(=O)NC1CCCC1)C(C)(C)C)C(=O)O |

System: not listed separately
Test: Clearance in rat at 2 mg/kg, iv
Format: ADME, organism-based
Parameters: dose 2 mg/kg, route intravenous
Settings: in vivo

| clearance [mL/min/kg] | SMILES |
| --- | --- |
| 22 | C=C[C@@H]1C[C@]1(NC(=O)[C@@H]1C[C@@H](Oc2cc(-c3csc(NC(C)C)n3)nc3c(Br)c(OC)ccc23)CN1C(=O)[C@@H](CC(=O)NC1CCCC1)C(C)(C)C)C(=O)O |

System: not listed separately
Test: Half life in rat at 2 mg/kg, iv
Format: ADME, organism-based
Parameters: dose 2 mg/kg, route intravenous
Settings: in vivo

| half-life [min] | SMILES |
| --- | --- |
| 84 | C=C[C@@H]1C[C@]1(NC(=O)[C@@H]1C[C@@H](Oc2cc(-c3csc(NC(C)C)n3)nc3c(Br)c(OC)ccc23)CN1C(=O)[C@@H](CC(=O)NC1CCCC1)C(C)(C)C)C(=O)O |

System: Rattus norvegicus
Test: Cmax in rat at 5 mg/kg, po
Format: ADME, organism-based
Parameters: dose 5 mg/kg, route oral
Settings: in vivo

| Cmax [nM] | SMILES |
| --- | --- |
| 850 | C=C[C@@H]1C[C@]1(NC(=O)[C@@H]1C[C@@H](Oc2cc(-c3csc(NC(C)C)n3)nc3c(Br)c(OC)ccc23)CN1C(=O)[C@@H](CC(=O)NC1CCCC1)C(C)(C)C)C(=O)O |

System: Rattus norvegicus
Test: AUC (0 to infinity) in rat at 5 mg/kg, po
Format: ADME, organism-based, Plasma
Parameters: time infinity, dose 5 mg/kg, route oral
Settings: in vivo

| AUC [µM·h] | SMILES |
| --- | --- |
| 2.1 | C=C[C@@H]1C[C@]1(NC(=O)[C@@H]1C[C@@H](Oc2cc(-c3csc(NC(C)C)n3)nc3c(Br)c(OC)ccc23)CN1C(=O)[C@@H](CC(=O)NC1CCCC1)C(C)(C)C)C(=O)O |

System: not listed separately
Test: Half life in dog liver microsomes
Format: ADME, Canis lupus familiaris, Microsome
Settings: not given

| half-life [min] | SMILES |
| --- | --- |
| 153 | C=C[C@@H]1C[C@]1(NC(=O)[C@@H]1C[C@@H](Oc2cc(-c3csc(NC(C)C)n3)nc3c(Br)c(OC)ccc23)CN1C(=O)[C@@H](CC(=O)NC1CCCC1)C(C)(C)C)C(=O)O |
| > 300 | C=C[C@@H]1C[C@]1(NC(=O)[C@@H]1C[C@@H](Oc2cc(-c3csc(NC(C)C)n3)nc3c(Br)c(OC)ccc23)CN1C(=O)[C@@H](NC(=O)OC1CCCC1)C(C)(C)C)C(=O)O |

System: not listed separately
Test: Half life in monkey liver microsomes
Format: ADME, Macaca mulatta, Microsome
Settings: rhesus monkey

| half-life [min] | SMILES |
| --- | --- |
| 52 | C=C[C@@H]1C[C@]1(NC(=O)[C@@H]1C[C@@H](Oc2cc(-c3csc(NC(C)C)n3)nc3c(Br)c(OC)ccc23)CN1C(=O)[C@@H](CC(=O)NC1CCCC1)C(C)(C)C)C(=O)O |
| 190 | C=C[C@@H]1C[C@]1(NC(=O)[C@@H]1C[C@@H](Oc2cc(-c3csc(NC(C)C)n3)nc3c(Br)c(OC)ccc23)CN1C(=O)[C@@H](NC(=O)OC1CCCC1)C(C)(C)C)C(=O)O |

System: not listed separately
Test: Half life in human liver microsomes
Format: ADME, Microsome
Settings: not given

| half-life [min] | SMILES |
| --- | --- |
| 207 | C=C[C@@H]1C[C@]1(NC(=O)[C@@H]1C[C@@H](Oc2cc(-c3csc(NC(C)C)n3)nc3c(Br)c(OC)ccc23)CN1C(=O)[C@@H](CC(=O)NC1CCCC1)C(C)(C)C)C(=O)O |
| > 300 | C=C[C@@H]1C[C@]1(NC(=O)[C@@H]1C[C@@H](Oc2cc(-c3csc(NC(C)C)n3)nc3c(Br)c(OC)ccc23)CN1C(=O)[C@@H](NC(=O)OC1CCCC1)C(C)(C)C)C(=O)O |
| > 300 | C=C[C@@H]1C[C@]1(NC(=O)[C@@H]1C[C@@H](Oc2cc(OCC)nc3c(Br)c(OC)ccc23)CN1C(=O)[C@@H](CC(=O)NC(C)(C)C)C(C)(C)C)C(=O)NS(=O)(=O)C1CC1 |

System: not listed separately
Test: Half life in rat liver microsomes
Format: ADME, Microsome
Settings: not given

| half-life [min] | SMILES |
| --- | --- |
| 188 | C=C[C@@H]1C[C@]1(NC(=O)[C@@H]1C[C@@H](Oc2cc(-c3csc(NC(C)C)n3)nc3c(Br)c(OC)ccc23)CN1C(=O)[C@@H](CC(=O)NC1CCCC1)C(C)(C)C)C(=O)O |
| 210 | C=C[C@@H]1C[C@]1(NC(=O)[C@@H]1C[C@@H](Oc2cc(-c3csc(NC(C)C)n3)nc3c(Br)c(OC)ccc23)CN1C(=O)[C@@H](NC(=O)OC1CCCC1)C(C)(C)C)C(=O)O |

System: not listed separately
Test: Permeability across basolateral to apical side in human Caco2 cells
Format: ADME, cell-based
Settings: Caco-2, read-out: permeability

| Papp B→A [×10⁻⁶ cm/s] | SMILES |
| --- | --- |
| 10 | C=C[C@@H]1C[C@]1(NC(=O)[C@@H]1C[C@@H](Oc2cc(-c3csc(NC(C)C)n3)nc3c(Br)c(OC)ccc23)CN1C(=O)[C@@H](CC(=O)NC1CCCC1)C(C)(C)C)C(=O)O |
| 2 | C=C[C@@H]1C[C@]1(NC(=O)[C@@H]1C[C@@H](Oc2cc(-c3csc(NC(C)C)n3)nc3c(Br)c(OC)ccc23)CN1C(=O)[C@@H](NC(=O)OC1CCCC1)C(C)(C)C)C(=O)O |

System: not listed separately
Test: Permeability across apical to basolateral side in human Caco2 cells
Format: ADME, cell-based
Settings: Caco-2, read-out: permeability

| Papp A→B [×10⁻⁶ cm/s] | SMILES |
| --- | --- |
| 8 | C=C[C@@H]1C[C@]1(NC(=O)[C@@H]1C[C@@H](Oc2cc(-c3csc(NC(C)C)n3)nc3c(Br)c(OC)ccc23)CN1C(=O)[C@@H](CC(=O)NC1CCCC1)C(C)(C)C)C(=O)O |
| 17 | C=C[C@@H]1C[C@]1(NC(=O)[C@@H]1C[C@@H](Oc2cc(-c3csc(NC(C)C)n3)nc3c(Br)c(OC)ccc23)CN1C(=O)[C@@H](NC(=O)OC1CCCC1)C(C)(C)C)C(=O)O |
| 7.1 | C=C[C@@H]1C[C@]1(NC(=O)[C@@H]1C[C@@H](Oc2cc(OCC)nc3c(Br)c(OC)ccc23)CN1C(=O)[C@@H](CC(=O)NC(C)(C)C)C(C)(C)C)C(=O)NS(=O)(=O)C1CC1 |

System: not listed separately
Test: Inhibition of Hepatitis C virus NS3 protease
Parameters: species or system Hepacivirus hominis
Settings: not given

| IC50 [nM] | SMILES |
| --- | --- |
| 10 | C=C[C@@H]1C[C@]1(NC(=O)[C@@H]1C[C@@H](Oc2cc(-c3csc(NC(C)C)n3)nc3c(Br)c(OC)ccc23)CN1C(=O)[C@@H](CC(=O)NC1CCCC1)C(C)(C)C)C(=O)O |
| 1.7 | C=C[C@@H]1C[C@]1(NC(=O)[C@@H]1C[C@@H](Oc2nccc3cc(OC)ccc23)CN1C(=O)[C@@H](CC(=O)Nc1ccccc1)C(C)(C)C)C(=O)NS(=O)(=O)C1CC1 |
| 8.9 | C=C[C@@H]1C[C@]1(NC(=O)[C@@H]1C[C@@H](Oc2cc(-c3csc(NC(C)C)n3)nc3c(Br)c(OC)ccc23)CN1C(=O)[C@@H](NC(=O)OC1CCCC1)C(C)(C)C)C(=O)O |
| 0.8 | C=C[C@@H]1C[C@]1(NC(=O)[C@@H]1C[C@@H](Oc2cc(OCC)nc3c(Br)c(OC)ccc23)CN1C(=O)[C@@H](CC(=O)NC(C)(C)C)C(C)(C)C)C(=O)NS(=O)(=O)C1CC1 |

System: Hepatitis C virus
Test: Antiviral activity against Hepatitis C virus
Format: functional, organism-based, Hepacivirus hominis
Settings: not given

| EC50 [nM] | SMILES |
| --- | --- |
| 3.5 | C=C[C@@H]1C[C@]1(NC(=O)[C@@H]1C[C@@H](Oc2cc(-c3csc(NC(C)C)n3)nc3c(Br)c(OC)ccc23)CN1C(=O)[C@@H](CC(=O)NC1CCCC1)C(C)(C)C)C(=O)O |
| 64 | C=C[C@@H]1C[C@]1(NC(=O)[C@@H]1C[C@@H](Oc2nccc3cc(OC)ccc23)CN1C(=O)[C@@H](CC(=O)Nc1ccccc1)C(C)(C)C)C(=O)NS(=O)(=O)C1CC1 |
| 6.8 | C=C[C@@H]1C[C@]1(NC(=O)[C@@H]1C[C@@H](Oc2cc(-c3csc(NC(C)C)n3)nc3c(Br)c(OC)ccc23)CN1C(=O)[C@@H](NC(=O)OC1CCCC1)C(C)(C)C)C(=O)O |
| 8.4 | C=C[C@@H]1C[C@]1(NC(=O)[C@@H]1C[C@@H](Oc2cc(OCC)nc3c(Br)c(OC)ccc23)CN1C(=O)[C@@H](CC(=O)NC(C)(C)C)C(C)(C)C)C(=O)NS(=O)(=O)C1CC1 |
